Laboratory results from patent publication US4430319A, “Radioactive iodine labeled phenolic amines” (State University of New York, priority 1982, dated 1984).

Experiment: Biodistribution of I-123 Compound in rats (i.v. injection, excised organs gamma counted)
Type: in vivo, Sprague-Dawley male rats
Details: for Blood/Brain: concentration ratio calculated from % dose/gram of wet tissue; for Biodistribution, Brain / Biodistribution, Heart / Biodistribution, Kidneys / Biodistribution, Liver / Biodistribution, Lungs / Biodistribution, Skin / Biodistribution, Spleen / Biodistribution, Stomach / Biodistribution, Thyroids / Biodistribution, Blood / Biodistribution, Muscle: average of 3; for Biodistribution, Blood: blood taken as 7% of body weight; for Biodistribution, Muscle: muscle taken as 40% of body weight
Protocol: Studies of distribution of the optimum radiopharmaceutical compound of the present invention in rats, the results of which are reflected in Table 1, were conducted according to standard practice in the pharmacological sciences, and therefore need not be described here in great detail. Nevertheless, for the sake of complete understanding of the present invention, some experimental details of these studies are briefly described below: Sprague-Dawley male rats (220-300 g) were injected intravenously (femoral vein) with a 0.2 ml solution (0.5-20. micro Ci) under light ether anaesthesia. At different time periods after the injection, the animals were sacrificed and organs of interest were excised and counted in a well counter. Percent dose was estimated by comparison of tissue counts to suitably diluted aliquots of the injected material. Total activities in blood and muscle were calculated by assuming that they are 7% and 40% of the body weight respectively. Sprague-Dawley male rats (220-300 g) under light ether anesthesia were injected intravenously with 0.2 ml of a saline solution containing 0.5-20 uCi of test compound (specific activity 0.5-1.0 uCi/mg). At different time periods after injection the animals were put under ether anesthesia and killed by cardiactomy. The organs of interest were excised, weighed and counted in a Beckman automatic gamma counter (Model 4000). The % dose/organ was determined by comparison of tissue radioactivity levels to suitably diluted aliquots of the injected dose. The approximate % dose/g of wet tissue or organ can be calculated by dividing the % dose/organ by the mean organ weight (mean weights: heart 0.85 g, brain 1.65 g, blood 18 g, liver 9 g, kidneys 1.9 g, lungs 1.6 g).

[1] = 2 min after i.v. injection, rats
[2] = 1 hr after i.v. injection, rats

Cc1cc([123I])cc(CN(C)CCCN(C)C)c1O [I-123 Compound, N,N,N-trimethyl-N'[2-hydroxy-3-methyl-5-iodobenzyl]-1,3-propanediamines]
Blood/Brain (2 min after i.v. injection): 14.84
Biodistribution, Brain [1]: 2.74 % dose/organ
Biodistribution, Heart [1]: 2.71 % dose/organ
Biodistribution, Kidneys [1]: 8.06 % dose/organ
Biodistribution, Liver [1]: 5.52 % dose/organ
Biodistribution, Lungs [1]: 36.53 % dose/organ
Biodistribution, Skin [1]: 6.73 % dose/organ
Biodistribution, Spleen [1]: 0.72 % dose/organ
Biodistribution, Stomach [1]: 0.80 % dose/organ
Biodistribution, Thyroids [1]: 0.59 % dose/organ
Biodistribution, Blood [1]: 2.02 % dose/organ
Biodistribution, Muscle [1]: 5.66 % dose/organ
Blood/Brain (1 hr after i.v. injection): 32.18
Biodistribution, Brain [2]: 2.50 % dose/organ
Biodistribution, Heart [2]: 0.29 % dose/organ
Biodistribution, Kidneys [2]: 2.87 % dose/organ
Biodistribution, Liver [2]: 4.68 % dose/organ
Biodistribution, Lungs [2]: 18.25 % dose/organ
Biodistribution, Skin [2]: 9.21 % dose/organ
Biodistribution, Spleen [2]: 1.58 % dose/organ
Biodistribution, Stomach [2]: 0.93 % dose/organ
Biodistribution, Thyroids [2]: 0.06 % dose/organ
Biodistribution, Blood [2]: 0.85 % dose/organ
Biodistribution, Muscle [2]: 12.77 % dose/organ
initial uptake in the brain, lung and liver (rats, i.v., Table 1, in words): high initial uptake
persistence of uptake in the brain, lung and liver (rats, i.v., Table 1, in words): persists sufficiently to allow imaging
